What follows are compounds tested against NSD2 [1-1365] (Homo sapiens (Human), UniProt O96028) (assay: LC-MS/MS-based NSD2 enzymatic assay (SAH production)). Settings: NSD2 biochemical activity, class symbols; read-out: NSD2 IC50.
Type: biochemical
Description: LC-MS/MS-Based NSD2 Enzymatic Assay
This assay employed LC-MS/MS technology to monitor the SAH production from the NSD2 enzymatic reaction. The enzymatic reaction was performed in white proxiplate plus 384-well microplate (Perkin Elmer). The reaction mixture (10 μL) were composed of 8 nM NSD2 [1-1365], […] SAM (USB, 10601) and 400 nM nucleosome (purified from mouse liver) in reaction buffer (20 mM Tris-HCl, pH at 8.0, 0.01% Tween 20, 10 mM MgCl2, 50 mM NaCl, 1 mM DTT, 1 mM TCEP (pH7.5)). After 90 min incubation at room temperature, 3 μL quenching solution containing 2.5% TFA with 320 nM d4-SAH was added to stop the reaction.
For the inhibition assay, compound solutions were transferred into the wells by Mosquito™ (TTP LabTech). The inhibition assays were carried out by preincubating various concentrations of the inhibitor with 5 uL reaction mixture containing 16 nM NSD2 [1-1365] and 2 uM SAM (USB, 10601) in reaction buffer. After 20 min preincubation, 5 uL solution containing 800 nM nucleosome (purified from mouse liver) in reaction buffer was added to initiate the reaction. The reaction was stopped by 3 μL quenching solution containing 2.5% TFA with 320 nM d4-SAH after 90 min.
The SAH production from the enzymatic assays were monitored by LC-MS/MS on an API 4000 triple quadrupole mass spec with Turbolon Spray (Applied Biosystem) coupled with Prominenece UFLC(Shimazu). Liquid chromatography was performed on a Chromolith FastGradient HPLC column (RP-18e, 25-2 mm, from Merck) at a flow rate of 0.8 ml/min. The column was connected directly to the turbo ion electrospray operating in the positive-ion mode. Mobile phase A is 0.1% FA and 2% methanol in water and mobile phase B is 0.1% FA in ACN. Injection volume was 3 μl and the autosampler was kept at 4 degree. SAH and d4-SAH were simultaneously monitored. Data were acquired and processed by Analyst software.
To quantify the formed SAH, d4-SAH was added as internal standard (IS). A series of SAH (Sigma, A9384) solution at varying concentration (1-500 nM in reaction buffer) was mixed with quenching solution mentioned above. Then LC-MS/MS was carried out on API 4000 LC/MS/MS system to detect both SAH and d4-SAH. The plot of SAH peak area/IS peak area vs SAH concentration was used to generate the normalization factor of SAH. The SAH production from real enzymatic reaction was derived from the standard curve of SAH. The down-limit of our system for the detection of SAH is around 1-2 nM, and the linear range can reach up to 500 nM.

Sequence of NSD2 [1-1365] (O96028 whole entry): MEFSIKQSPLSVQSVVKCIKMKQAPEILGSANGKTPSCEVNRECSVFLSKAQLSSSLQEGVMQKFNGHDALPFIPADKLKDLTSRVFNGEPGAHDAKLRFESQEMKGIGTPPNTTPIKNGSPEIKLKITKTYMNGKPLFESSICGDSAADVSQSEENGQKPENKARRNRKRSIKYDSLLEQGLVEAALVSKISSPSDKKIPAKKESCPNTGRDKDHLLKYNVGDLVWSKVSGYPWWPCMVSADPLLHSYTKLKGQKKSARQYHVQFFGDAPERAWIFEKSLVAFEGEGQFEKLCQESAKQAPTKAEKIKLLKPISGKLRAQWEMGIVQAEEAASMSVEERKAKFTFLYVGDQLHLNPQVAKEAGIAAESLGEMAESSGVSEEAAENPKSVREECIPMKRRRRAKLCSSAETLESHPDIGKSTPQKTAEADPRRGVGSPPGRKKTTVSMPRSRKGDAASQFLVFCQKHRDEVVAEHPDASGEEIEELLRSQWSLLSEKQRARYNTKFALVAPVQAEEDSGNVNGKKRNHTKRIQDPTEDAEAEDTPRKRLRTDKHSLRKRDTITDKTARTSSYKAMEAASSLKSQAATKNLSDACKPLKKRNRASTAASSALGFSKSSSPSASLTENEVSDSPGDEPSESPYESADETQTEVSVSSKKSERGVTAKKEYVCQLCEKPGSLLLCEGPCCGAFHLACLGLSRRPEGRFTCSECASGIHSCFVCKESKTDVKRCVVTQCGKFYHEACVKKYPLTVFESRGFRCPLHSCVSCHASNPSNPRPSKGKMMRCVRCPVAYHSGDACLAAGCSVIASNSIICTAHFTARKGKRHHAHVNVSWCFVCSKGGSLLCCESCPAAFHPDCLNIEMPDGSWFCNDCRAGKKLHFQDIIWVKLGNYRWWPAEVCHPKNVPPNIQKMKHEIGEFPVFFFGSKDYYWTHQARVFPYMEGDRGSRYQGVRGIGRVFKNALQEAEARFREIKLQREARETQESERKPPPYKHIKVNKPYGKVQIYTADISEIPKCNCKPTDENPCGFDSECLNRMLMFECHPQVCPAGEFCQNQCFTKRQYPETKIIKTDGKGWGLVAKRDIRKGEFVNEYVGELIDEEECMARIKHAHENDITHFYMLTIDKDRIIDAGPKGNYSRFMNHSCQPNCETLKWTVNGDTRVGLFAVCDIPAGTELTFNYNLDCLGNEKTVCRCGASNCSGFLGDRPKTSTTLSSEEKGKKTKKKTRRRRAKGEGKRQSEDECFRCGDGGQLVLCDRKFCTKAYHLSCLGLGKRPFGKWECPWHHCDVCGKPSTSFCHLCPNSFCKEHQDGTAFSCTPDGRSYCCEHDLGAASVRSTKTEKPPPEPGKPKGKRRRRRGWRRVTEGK

Row | Compound | IC50
1 | COc1ccc(-c2cc(Cn3cnc4c(N)ncnc43)c(N3C[C@H](N)CC(F)(F)C3)cn2)cc1F [Example 16, (R)-9-((5-(5-amino-3,3-difluoropiperidin-1-yl)-2-(3-fluoro-4-methoxyphenyl)pyridin-4-yl)methyl)-9H-purin-6-amine] | 10 to 1000 nM
2 | COc1c(-c2ccc(F)c(F)c2)ncc(N2CCC[C@](N)([C@H](O)C(F)F)C2)c1Cn1cnc2c(N)ncnc21 [Example 118, (S)-1-((R)-3-amino-1-(4-((6-amino-9H-purin-9-yl)methyl)-6-(3,4-difluorophenyl)-5-methoxypyridin-3-yl)piperidin-3-yl)-2,2-difluoroethan-1-ol] | 1 to 10 nM
3 | N#CCC1(N)CCCN(c2cnc(-c3ccc(F)c(F)c3)cc2Cn2cnc3c(N)ncnc32)C1 (centres unmarked) [Example 77, 2-(3-amino-1-(4-((6-amino-9H-purin-9-yl)methyl)-6-(3,4-difluorophenyl)pyridin-3-yl)piperidin-3-yl)acetonitrile] | > 1000 nM
4 | Cn1ncc2cc(-c3cc(Cn4cnc5c(N)ncnc54)c(N4CCC[C@](N)([C@H](O)C(F)F)C4)cn3)c(F)cc21 [Example 143, (S)-1-((R)-3-amino-1-(4-((6-amino-9H-purin-9-yl)methyl)-6-(6-fluoro-1-methyl-1H-indazol-5-yl)pyridin-3-yl)piperidin-3-yl)-2,2-difluoroethan-1-ol] | 10 to 1000 nM
5 | Nc1ncnc2c1ncn2Cc1cc(-c2ccc3c(c2)CCO3)ncc1N1CC[C@@H](F)[C@@H](N)C1 [Example 14, 9-((5-((3S,4R)-3-amino-4-fluoropiperidin-1-yl)-2-(2,3-dihydrobenzofuran-5-yl)pyridin-4-yl)methyl)-9H-purin-6-amine] | 10 to 1000 nM
6 | CC1CCCN1C(=O)C1(N)CCCN(c2cnc(-c3ccc(F)c(F)c3)cc2Cn2cnc3c(N)ncnc32)C1 (centres unmarked) [Example 88, (3-amino-1-(4-((6-amino-9H-purin-9-yl)methyl)-6-(3,4-difluorophenyl)pyridin-3-yl)piperidin-3-yl)(2-methylpyrrolidin-1-yl)methanone] | 10 to 1000 nM

Other lines, results leading:

Row | IC50 | Compound
7 | > 1000 nM | CC1(C(=O)C2(N)CCCN(c3cnc(-c4ccc(F)c(F)c4)cc3Cn3cnc4c(N)ncnc43)C2)COC1 (centres unmarked) [Example 112, (3-amino-1-(4-((6-amino-9H-purin-9-yl)methyl)-6-(3,4-difluorophenyl)pyridin-3-yl)piperidin-3-yl)(3-methyloxetan-3-yl)methanone]
8 | 1 to 10 nM | Nc1ncnc2c1ncn2Cc1cc(-c2ccc(F)c(F)c2)ncc1N1CCCC(N)(C(=O)C2CCCC2)C1 (centres unmarked) [Example 100, (3-amino-1-(4-((6-amino-9H-purin-9-yl)methyl)-6-(3,4-difluorophenyl)pyridin-3-yl)piperidin-3-yl)(cyclopentyl)methanone]
9 | 1 to 10 nM | Cc1cc(C(F)F)c(F)cc1-c1cc(Cn2cnc3c(N)ncnc32)c(N2CCC[C@](N)([C@@H](O)C(F)F)C2)cn1 [Example 129, (R)-1-((R)-3-amino-1-(4-((6-amino-9H-purin-9-yl)methyl)-6-(4-(difluoromethyl)-5-fluoro-2-methylphenyl)pyridin-3-yl)piperidin-3-yl)-2,2-difluoroethan-1-ol]
10 | 10 to 1000 nM | Nc1ncnc2c1ncn2Cc1c(N2CCC[C@](N)([C@H](O)C(F)F)C2)cnc(-c2ccc(F)cc2F)c1F [Example 142, (S)-1-((R)-3-amino-1-(4-((6-amino-9H-purin-9-yl)methyl)-6-(2,4-difluorophenyl)-5-fluoropyridin-3-yl)piperidin-3-yl)-2,2-difluoroethan-1-ol]

Same assay, conditions: read-out: NSD2 IC50

Row | Compound | IC50
11 | Cn1cnc2ccc(-c3cc(Cn4cnc5c(N)ncnc54)c(N4CCCC(N)(c5cccc(Cl)n5)C4)cn3)cc21 (centres unmarked) [Example 220, 9-((5-(3-amino-3-(6-chloropyridin-2-yl)piperidin-1-yl)-2-(1-methyl-1H-benzo[d]imidazol-6-yl)pyridin-4-yl)methyl)-9H-purin-6-amine] | 10 to 1000 nM
12 | CNC(=O)[C@@H]1[C@H](N)CCCN1c1cnc(-c2ccc(F)c(F)c2)cc1Cn1cnc2c(N)ncnc21 [Example 315, (2S,3R)-3-amino-1-(4-((6-amino-9H-purin-9-yl)methyl)-6-(3,4-difluorophenyl)pyridin-3-yl)-N-methylpiperidine-2-carboxamide] | > 1000 nM
13 | Nc1ncnc2c1ncn2Cc1cc(-c2ccc(F)c(F)c2)ncc1N1CCCC2(COCCN2)C1 (centres unmarked) [Example 321, 9-((2-(3,4-difluorophenyl)-5-(4-oxa-1,8-diazaspiro[5.5]undecan-8-yl)pyridin-4-yl)methyl)-9H-purin-6-amine] | > 1000 nM
14 | Nc1ncnc2c1ncn2Cc1cc(C2CC2)ncc1N1CCC[C@](N)(c2cccc(Cl)n2)C1 [Example 204, (R)-9-((5-(3-amino-3-(6-chloropyridin-2-yl)piperidin-1-yl)-2-cyclopropylpyridin-4-yl)methyl)-9H-purin-6-amine] | 10 to 1000 nM
15 | Nc1nccc2c1ncn2Cc1cc(-c2ccc(F)cc2)ncc1N1CCC[C@](N)(c2ccn(C(F)F)n2)C1 [Example 279, (R)-1-((5-(3-amino-3-(1-(difluoromethyl)-1H-pyrazol-3-yl)piperidin-1-yl)-2-(4-fluorophenyl)pyridin-4-yl)methyl)-1H-imidazo[4,5-c]pyridin-4-amine] | 1 to 10 nM
16 | CS(=O)(=O)CC1(N)CCCN(c2cnc(-c3ccc(F)c(F)c3)cc2Cn2cnc3c(N)ncnc32)C1 (centres unmarked) [Example 298, 9-((5-(3-amino-3-((methylsulfonyl)methyl)piperidin-1-yl)-2-(3,4-difluorophenyl)pyridin-4-yl)methyl)-9H-purin-6-amine] | > 1000 nM
17 | Nc1ncnc2c1ncn2Cc1cc(-c2ccc(F)cc2)ncc1N1CCCC(N)(c2ccc(F)cn2)C1 (centres unmarked) [Example 189, 9-((5-(3-amino-3-(5-fluoropyridin-2-yl)piperidin-1-yl)-2-(4-fluorophenyl)pyridin-4-yl)methyl)-9H-purin-6-amine] | 10 to 1000 nM
18 | N#Cc1ccc(-c2cc(Cn3cnc4c(N)ncnc43)c(N3CCCC(N)(c4cccc(Cl)n4)C3)cn2)cc1F (centres unmarked) [Example 223] | 10 to 1000 nM
19 | Nc1ncnc2c1ncn2Cc1cc(-c2ccc(F)c(F)c2)ncc1N1CCC[C@@H](N)[C@H]1COCC(F)F [Example 313, 9-((5-((2S,3R)-3-amino-2-((2,2-difluoroethoxy)methyl)piperidin-1-yl)-2-(3,4-difluorophenyl)pyridin-4-yl)methyl)-9H-purin-6-amine] | 10 to 1000 nM
20 | Nc1nccc2c1ncn2Cc1cc(N2CCC2)ncc1N1CCCC(N)(c2cccc(Cl)n2)C1 (centres unmarked) [Example 265, 1-((5-(3-amino-3-(6-chloropyridin-2-yl)piperidin-1-yl)-2-(azetidin-1-yl)pyridin-4-yl)methyl)-1H-imidazo[4,5-c]pyridin-4-amine] | > 1000 nM
21 | NC(=O)C[C@@H]1[C@H](N)CCCN1c1cnc(-c2ccc(F)c(F)c2)cc1Cn1cnc2c(N)ncnc21 [Example 320, 2-((2R,3R)-3-amino-1-(4-((6-amino-9H-purin-9-yl)methyl)-6-(3,4-difluorophenyl)pyridin-3-yl)piperidin-2-yl)acetamide] | > 1000 nM
22 | Nc1ncnc2c1ncn2Cc1cc(-c2ccc(F)c(F)c2)ncc1N1CCCC(N)(C(F)CF)C1 (centres unmarked) [Example 287, 9-((5-(3-amino-3-(1,2-difluoroethyl)piperidin-1-yl)-2-(3,4-difluorophenyl)pyridin-4-yl)methyl)-9H-purin-6-amine] | 10 to 1000 nM

More lines, now with the values ahead:

Row | IC50 | Compound
23 | > 1000 nM | Nc1ncnc2c1ncn2Cc1cc(-c2ccc(F)c(F)c2)ncc1N1CCCC(N)C1=O (centres unmarked) [Example 324, 3-amino-1-(4-((6-amino-9H-purin-9-yl)methyl)-6-(3,4-difluorophenyl)pyridin-3-yl)piperidin-2-one]
24 | > 1000 nM | Nc1ncnc2c1ncn2Cc1cc(-c2ccc(F)c(F)c2)ncc1N1C[C@H](N)CCC1=O [Example 325, (R)-5-amino-1-(4-((6-amino-9H-purin-9-yl)methyl)-6-(3,4-difluorophenyl)pyridin-3-yl)piperidin-2-one]
25 | 1 to 10 nM | Nc1ncnc2c1ncn2Cc1cc(-c2ccc(F)c(F)c2)ncc1N1CCCC(N)(c2ccc(Cl)nn2)C1 (centres unmarked) [Example 249, 9-((5-(3-amino-3-(6-chloropyridazin-3-yl)piperidin-1-yl)-2-(3,4-difluorophenyl)pyridin-4-yl)methyl)-9H-purin-6-amine]
26 | 10 to 1000 nM | Nc1ncnc2c1ncn2Cc1cc(-c2ccc(F)c(F)c2)ncc1N1CCC[C@@H](N)[C@H]1COC(F)F [Example 311, 9-((5-((2S,3R)-3-amino-2-((difluoromethoxy)methyl)piperidin-1-yl)-2-(3,4-difluorophenyl)pyridin-4-yl)methyl)-9H-purin-6-amine]

From patent US11420970B1 (NOVARTIS AG, priority 2019, dated 2022)
